Laboratory results as given in PubChem BioAssay (NCI).
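A five-concentration, 48-hour dose response in 96-well plates underlies each endpoint, interpolated linearly between surrounding concentrations. TGI denotes the concentration required for complete inhibition of growth.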

What was measured:
Test in all cases: DTP human tumour cell line panel, 48 h
[1] = tested on: OVCAR-5 ovarian
[2] = tested on: NCI-H460 lung
[3] = tested on: UO-31 renal
[4] = tested on: SNB-19 CNS
[5] = tested on: HL-60(TB) leukemia
[6] = tested on: SF-295 CNS
[7] = tested on: COLO 205 colon
[8] = tested on: HCT-116 colon
[9] = tested on: SK-MEL-2 melanoma
[10] = tested on: RPMI-8226 leukemia
[11] = tested on: SF-268 CNS
[12] = tested on: ACHN renal
[13] = tested on: IGROV1 ovarian
[14] = tested on: MOLT-4 leukemia
[15] = tested on: OVCAR-3 ovarian
[16] = tested on: OVCAR-4 ovarian
[17] = tested on: SNB-75 CNS
[18] = tested on: NCI-H23 lung
[19] = tested on: M19-MEL melanoma
[20] = tested on: SNB-78 CNS
[21] = tested on: HT29 colon
[22] = tested on: M14 melanoma
[23] = tested on: NCI-H522 lung
[24] = tested on: HOP-62 NSCLC
[25] = tested on: KM12 colon
[26] = tested on: SF-539 CNS
[27] = tested on: DMS 114 small cell lung
[28] = tested on: SK-OV-3 ovarian
[29] = tested on: LXFL 529 NSCLC
[30] = tested on: SR leukemia
[31] = tested on: U251 CNS
[32] = tested on: CCRF-CEM leukemia
[33] = tested on: HOP-92 NSCLC
[34] = tested on: UACC-62 melanoma
[35] = tested on: SK-MEL-28 melanoma
[36] = tested on: RXF 393 renal
[37] = tested on: MALME-3M melanoma
[38] = tested on: UACC-257 melanoma
[39] = tested on: K-562 leukemia
[40] = tested on: TK-10 renal
[41] = tested on: CAKI-1 renal
[42] = tested on: KM20L2 colon
[43] = tested on: HCC-2998 colon
[44] = tested on: EKVX NSCLC
[45] = tested on: DMS 273 small cell lung
[46] = tested on: SW-620 colon
[47] = tested on: OVCAR-8 ovarian
[48] = tested on: 786-0 renal
[49] = tested on: SN12C renal
[50] = tested on: LOX IMVI melanoma
[51] = tested on: A549 NSCLC
[52] = tested on: NCI-H226 lung
[53] = tested on: HS 578T breast
[54] = tested on: HCT-15 colon
[55] = tested on: MDA-MB-435
[56] = tested on: T-47D breast
[57] = tested on: MDA-MB-231 breast
[58] = tested on: PC-3 prostate
[59] = tested on: A498 renal
[60] = tested on: DU-145 prostate
[61] = tested on: BT-549 breast
[62] = tested on: NCI/ADR-RES ovarian
[63] = tested on: MDA-N
[64] = tested on: SK-MEL-5 melanoma
[65] = tested on: MCF7 breast

Cc1c(-c2c(C)c(=O)c3c(C(C)C)c(=O)c(=O)c(C=O)c-3c2=O)c(O)c2c(C=O)c(O)c(O)c(C(C)C)c2c1O
TGI [1]: 7.82 µM
TGI [2]: 11.8 µM
TGI [3]: 5.5 µM
TGI [4]: 17.6 µM
TGI [5]: 11.1 µM
TGI [6]: 3.94 µM
TGI [7]: 11.8 µM
TGI [8]: 7.81 µM
TGI [9]: 3.68 µM
TGI [10]: 9.9 µM
TGI [11]: 18.8 µM
TGI [12]: 10.3 µM
TGI [13]: 11.3 µM
TGI [14]: 11.3 µM
TGI [15]: 7.02 µM
TGI [16]: 12 µM
TGI [17]: 26.2 µM
TGI [18]: 10.5 µM
TGI [19]: 15.4 µM
TGI [20]: 6.78 µM
TGI [21]: 4.87 µM
TGI [22]: 4.24 µM
TGI [23]: 15.7 µM
TGI [24]: 14.3 µM
TGI [25]: 4.9 µM
TGI [26]: 8.87 µM
TGI [27]: 5.82 µM
TGI [28]: 13 µM
TGI [29]: 12.8 µM
TGI [30]: 17.1 µM
TGI [31]: 11.3 µM
TGI [32]: 5.07 µM
TGI [33]: 7.49 µM
TGI [34]: 8.14 µM
TGI [35]: 16.4 µM
TGI [36]: 6.99 µM
TGI [37]: 15.2 µM
TGI [38]: 13.6 µM
TGI [39]: 10.7 µM

CCCC(=O)OC[n+]1ccc2c(C)c3[nH]c4ccc(OC)cc4c3c(C)c2c1
TGI [1]: 2.31 µM
TGI [3]: 6.38 µM
TGI [5]: 1.82 µM
TGI [9]: 7.12 µM
TGI [10]: 0.54 µM
TGI [40]: 20.1 µM
TGI [11]: > 100 µM
TGI [12]: 7.47 µM
TGI [14]: 0.322 µM
TGI [41]: 13.6 µM
TGI [24]: 3.08 µM
TGI [25]: 1.77 µM
TGI [27]: 3.78 µM
TGI [28]: 14.9 µM
TGI [30]: 2.89 µM
TGI [31]: > 100 µM
TGI [37]: > 100 µM
TGI [38]: > 100 µM

c1ccc2nc(-c3ccc4c(c3)OCO4)ccc2c1
TGI [1]: > 100 µM
TGI [2]: > 100 µM
TGI [3]: 93.3 µM
TGI [4]: > 100 µM
TGI [5]: > 100 µM
TGI [6]: > 100 µM
TGI [7]: > 100 µM
TGI [42]: > 100 µM
TGI [9]: > 100 µM
TGI [40]: > 100 µM
TGI [11]: > 100 µM
TGI [12]: > 100 µM
TGI [43]: > 100 µM
TGI [44]: > 100 µM
TGI [45]: 62.8 µM
TGI [15]: 71.1 µM
TGI [16]: > 100 µM
TGI [46]: > 100 µM
TGI [17]: > 100 µM
TGI [47]: > 100 µM
TGI [18]: > 100 µM
TGI [20]: > 100 µM
TGI [21]: 79.7 µM
TGI [22]: > 100 µM
TGI [23]: > 100 µM
TGI [48]: > 100 µM
TGI [41]: > 100 µM
TGI [24]: 79.5 µM
TGI [25]: > 100 µM
TGI [49]: > 100 µM
TGI [50]: 82.7 µM
TGI [26]: > 100 µM
TGI [27]: 67.5 µM
TGI [51]: > 100 µM
TGI [29]: > 100 µM
TGI [52]: 97.6 µM
TGI [30]: 43.9 µM
TGI [31]: > 100 µM
TGI [33]: 19 µM
TGI [35]: > 100 µM
TGI [36]: 58.9 µM
TGI [37]: 68 µM
TGI [38]: 48.7 µM

Cc1ccc(N2CN3OC(=O)N(c4ccccc4)[C@@]3(c3ccccc3)C2)cc1
TGI [1]: > 100 µM
TGI [2]: > 100 µM
TGI [3]: > 100 µM
TGI [4]: > 100 µM
TGI [53]: > 100 µM
TGI [5]: > 100 µM
TGI [6]: > 100 µM
TGI [7]: > 100 µM
TGI [8]: > 100 µM
TGI [54]: > 100 µM
TGI [9]: > 100 µM
TGI [10]: > 100 µM
TGI [40]: > 100 µM
TGI [11]: > 100 µM
TGI [55]: > 100 µM
TGI [12]: > 100 µM
TGI [43]: > 100 µM
TGI [13]: > 100 µM
TGI [14]: > 100 µM
TGI [44]: > 100 µM
TGI [15]: > 100 µM
TGI [16]: > 100 µM
TGI [46]: > 100 µM
TGI [17]: > 100 µM
TGI [47]: > 100 µM
TGI [18]: > 100 µM
TGI [21]: > 100 µM
TGI [22]: > 100 µM
TGI [56]: 88.1 µM
TGI [23]: > 100 µM
TGI [48]: > 100 µM
TGI [41]: > 100 µM
TGI [57]: > 100 µM
TGI [58]: > 100 µM
TGI [24]: > 100 µM
TGI [25]: > 100 µM
TGI [59]: > 100 µM
TGI [49]: > 100 µM
TGI [50]: > 100 µM
TGI [60]: > 100 µM
TGI [61]: > 100 µM
TGI [62]: > 100 µM
TGI [26]: > 100 µM
TGI [51]: > 100 µM
TGI [63]: > 100 µM
TGI [28]: > 100 µM
TGI [52]: > 100 µM
TGI [30]: > 100 µM
TGI [31]: > 100 µM
TGI [32]: > 100 µM
TGI [33]: > 100 µM
TGI [34]: > 100 µM
TGI [35]: > 100 µM
TGI [36]: > 100 µM
TGI [37]: > 100 µM
TGI [64]: > 100 µM
TGI [38]: > 100 µM
TGI [65]: > 100 µM
TGI [39]: > 100 µM
